Values after ≈ are worked out from the molar mass of the structure shown.
How the values were obtained:
Format in all cases: cell-based
[1] = test system: M. catarrhalis; experiment: MIC by agar plate dilution against clinical isolate of M. catarrhalis; conditions: Moraxella catarrhalis, 1 strain (clinical isolate), Iso-Sensitest agar, 18 to 24 hr, 35° C.
Protocol: (§1) Minimal Inhibitory concentrations (MIC) of inhibitors against clinical isolates of S. pneumoniae, H. influenzae and M. catarrhalis obtained from the Public Health and Clinical Microbiology Laboratory, Addenbrooke's Hospital, Hills Road, Cambridge CB2 2QW, UK, were determined by a standard agar plate dilution method following recommendations in British Society for Antimicrobial Chemotherapy Working Party. 1991 “A guide to sensitivity testing British Society for Antimicrobial Chemomtherapy, London, United Kingdom”. Briefly Iso-Sensitest agar (pH 7.2: Oxoid, United Kingdom) was employed supplemented with 5% horse blood (Oxoid) and 20 μg of NAD (Sigma) per ml to support growth of fastidious bacteria. The inoculum used was approximately 10^4 colony forming units of each isolate contained in a volume of 1 μl. Plate were incubated 18 to 24 hr in air, -or for fastidious bacteria an atmosphere enriched with 4-6% carbon dioxide at 35° C. The MIC was determined as the lowest concentration of an antimicrobial tested that inhibited growth of the inoculum, disregarding a single persisting colony or faint haze caused by the inoculation.
(§2) The compounds of the Examples were are antibacterially active in the above assays, The following table states the MIC ranges of the tested compounds against 3 strains of S. pneumoniae, 2 strains of H. influenzae and 1 strain of M. catarrhalis.

[2] = test system: H. influenzae; experiment: MIC by agar plate dilution against clinical isolates of H. influenzae; conditions: Haemophilus influenzae, 2 strains (clinical isolates), Iso-Sensitest agar, 18 to 24 hr, 35° C., read-out: MIC range H. influenzae
Protocol: as §1, §2

[3] = test system: S. pneumoniae; experiment: MIC by agar plate dilution against clinical isolates of S. pneumoniae; conditions: 3 strains (clinical isolates), Iso-Sensitest agar, 18 to 24 hr, 35° C.
Protocol: as §1, §2

## CC(C)N(CC(=O)N(C)C)NC(=O)[C@H](CC1CCCC1)CN(O)C=O [Example 3, 2-{N′-[(2R)-Cyclopentylmethyl-3-(formyl-hydroxy-amino)-propionyl]-N-isopropyl-hydrazino}-N,N-dimethyl-acetamide]
[1]
  MIC: 0.5 µg/mL (≈ 1.4 µM)
[2]
  MIC: 0.5 to 1 µg/mL (≈ 1.4 to 2.81 µM)

## CC(C)N(CC(=O)N1CCCC1)NC(=O)[C@H](CC1CCCC1)CN(O)C=O [Example 2]
[1]
  MIC: 0.5 µg/mL (≈ 1.31 µM)
[2]
  MIC: 8 µg/mL (≈ 20.9 µM)
[3]
  MIC range S. pneumoniae: 4 to 16 µg/mL

## CC(C)N(CC(=O)Nc1cccnc1)NC(=O)[C@H](CC1CCCC1)CN(O)C=O [Example 6]
[1]
  MIC: 2 µg/mL (≈ 4.93 µM)
[2]
  MIC: 32 µg/mL (≈ 78.9 µM)

## Cc1csc(NC(=O)CN(NC(=O)[C@H](CC2CCCC2)CN(O)C=O)C(C)C)n1 [Example 9, 2-{N′-[(2R)-Cyclopentylmethyl-3-(formyl-hydroxy-amino)-propionyl]-N-isopropyl-hydrazino}-N-(4-methyl-thiazol-2-yl)-acetamide]
[1]
  MIC: 2 µg/mL (≈ 4.7 µM)
[2]
  MIC: > 32 µg/mL
[3]
  MIC range S. pneumoniae: 16 to 32 µg/mL

## CC(C)N(CC(=O)N1CCN(Cc2ccc3c(c2)OCO3)CC1)NC(=O)[C@H](CC1CCCC1)CN(O)C=O [Example 5, N-(2-{N′-[(2R)-(4-Benzo[1,3]dioxol-5-ylmethyl-piperazin-1-yl)-2-oxo-ethyl]-N′-isopropyl-hydrazinocarbonyl}-3-cyclopentylpropyl)-N-hydroxy formamide]
[1]
  MIC: 1 µg/mL (≈ 1.88 µM)
[2]
  MIC: > 32 µg/mL
[3]
  MIC range S. pneumoniae: 1 to 4 µg/mL

## CC(C)N(CC(=O)Nc1nccs1)NC(=O)[C@H](CC1CCCC1)CN(O)C=O [Example 7, 2-{N′-[(2R)-Cyclopentylmethyl-3-(formyl-hydroxy-amino)-propionyl]-N-isopropyl-hydrazino}-N-thiazol-2-yl-acetamide]
[1]
  MIC: 2 µg/mL (≈ 4.86 µM)
[2]
  MIC: 16 to 32 µg/mL (≈ 38.9 to 77.8 µM)
[3]
  MIC range S. pneumoniae: 16 to 32 µg/mL

## Cc1coc(NC(=O)CN(NC(=O)[C@H](CC2CCCC2)CN(O)C=O)C(C)C)n1 [Example 8, 2-{N′-[(2R)-Cyclopentylmethyl-3-(formyl-hydroxy-amino)-propionyl]-N-isopropyl-hydrazino}-N-(4-methyl-oxazol-2-yl)-acetamide]
[1]
  MIC: 2 µg/mL (≈ 4.88 µM)
[3]
  MIC range S. pneumoniae: 8 to 16 µg/mL

## CC(C)N(CC(=O)Nc1nc2ccccc2s1)NC(=O)[C@H](CC1CCCC1)CN(O)C=O [Example 10, N-Benzothiazol-2-yl-2-{N′-[(2R)-cyclopentylmethyl-3-(formyl-hydroxy-amino)-propionyl]-N-isopropyl-hydrazino)acetamide]
[1]
  MIC: 2 µg/mL (≈ 4.33 µM)
[2]
  MIC: > 32 µg/mL
[3]
  MIC range S. pneumoniae: 1 to 4 µg/mL

## COc1cc2c(cc1OC)CN(C(=O)CN(NC(=O)[C@H](CC1CCCC1)CN(O)C=O)C(C)C)CC2 [Example 4, N-{3-Cyclopentyl-(2R)-[N′-[2-(6,7-dimethoxy-3,4-dihydro-1H-isoquinolin-2-yl)-2-oxo-ethyl]-N′-isopropyl-hydrazinocarbonyl}-propyl)-N-hydroxy-formamide]
[1]
  MIC: 0.5 µg/mL (≈ 0.991 µM)
[2]
  MIC: 32 µg/mL (≈ 63.4 µM)
[3]
  MIC range S. pneumoniae: 1 to 2 µg/mL

From patent US20060172990A1, “Antibacterial agents” (priority 2002, published 2006)
